Data: patent publication US10301297B2, “Substituted nicotinimide inhibitors of BTK and their preparation and use in the treatment of cancer, inflammation and autoimmune disease” (GUANGZHOU INNOCARE PHARMA TECH CO., LTD., priority 2013, dated 2019)

Columns and labels:
[1] = target: BLK (Homo sapiens (Human), UniProt P51451); experiment: kinase binding screen (affinity beads, qPCR readout) at 1000 nM; details: read-out: % Inhibition @ 1000 nM
[2] = target: FGR (Homo sapiens (Human), UniProt P09769); experiment: as above; details: read-out: % Inhibition @ 1000 nM
Sequence of FGR (P09769 whole entry): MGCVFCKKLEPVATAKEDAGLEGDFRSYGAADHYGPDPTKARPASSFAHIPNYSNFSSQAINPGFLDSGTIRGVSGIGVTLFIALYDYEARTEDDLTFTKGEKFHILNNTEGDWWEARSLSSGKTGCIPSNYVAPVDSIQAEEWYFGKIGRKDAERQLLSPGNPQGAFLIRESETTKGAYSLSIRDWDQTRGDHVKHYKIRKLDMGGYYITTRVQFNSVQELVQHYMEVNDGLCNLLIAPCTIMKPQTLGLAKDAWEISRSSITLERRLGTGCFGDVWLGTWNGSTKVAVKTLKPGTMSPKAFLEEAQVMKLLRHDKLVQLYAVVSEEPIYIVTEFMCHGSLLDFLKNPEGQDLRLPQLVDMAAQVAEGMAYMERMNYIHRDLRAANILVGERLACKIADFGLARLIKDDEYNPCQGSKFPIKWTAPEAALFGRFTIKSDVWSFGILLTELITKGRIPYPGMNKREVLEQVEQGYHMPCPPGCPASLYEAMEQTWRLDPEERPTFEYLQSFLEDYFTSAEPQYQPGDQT

[3] = target: FYN (Homo sapiens (Human), UniProt P06241); experiment: as above; details: read-out: % Inhibition @ 1000 nM
Sequence of FYN (P06241 whole entry): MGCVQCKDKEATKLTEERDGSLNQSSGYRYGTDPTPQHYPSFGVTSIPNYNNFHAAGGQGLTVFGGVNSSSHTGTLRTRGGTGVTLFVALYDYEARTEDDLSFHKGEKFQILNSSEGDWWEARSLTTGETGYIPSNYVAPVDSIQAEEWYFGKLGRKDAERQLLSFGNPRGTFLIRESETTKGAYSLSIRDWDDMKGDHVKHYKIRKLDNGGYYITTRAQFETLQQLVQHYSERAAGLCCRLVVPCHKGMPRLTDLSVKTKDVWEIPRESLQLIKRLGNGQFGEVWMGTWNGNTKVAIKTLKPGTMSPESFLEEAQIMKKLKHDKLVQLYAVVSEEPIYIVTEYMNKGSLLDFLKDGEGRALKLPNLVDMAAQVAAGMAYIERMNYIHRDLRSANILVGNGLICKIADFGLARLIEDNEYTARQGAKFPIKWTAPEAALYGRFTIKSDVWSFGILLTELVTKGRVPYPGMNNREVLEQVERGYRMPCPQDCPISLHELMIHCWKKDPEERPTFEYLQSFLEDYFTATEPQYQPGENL

[4] = target: HCK (Homo sapiens (Human), UniProt P08631); experiment: as above; details: read-out: % Inhibition @ 1000 nM
Sequence of HCK (P08631 whole entry): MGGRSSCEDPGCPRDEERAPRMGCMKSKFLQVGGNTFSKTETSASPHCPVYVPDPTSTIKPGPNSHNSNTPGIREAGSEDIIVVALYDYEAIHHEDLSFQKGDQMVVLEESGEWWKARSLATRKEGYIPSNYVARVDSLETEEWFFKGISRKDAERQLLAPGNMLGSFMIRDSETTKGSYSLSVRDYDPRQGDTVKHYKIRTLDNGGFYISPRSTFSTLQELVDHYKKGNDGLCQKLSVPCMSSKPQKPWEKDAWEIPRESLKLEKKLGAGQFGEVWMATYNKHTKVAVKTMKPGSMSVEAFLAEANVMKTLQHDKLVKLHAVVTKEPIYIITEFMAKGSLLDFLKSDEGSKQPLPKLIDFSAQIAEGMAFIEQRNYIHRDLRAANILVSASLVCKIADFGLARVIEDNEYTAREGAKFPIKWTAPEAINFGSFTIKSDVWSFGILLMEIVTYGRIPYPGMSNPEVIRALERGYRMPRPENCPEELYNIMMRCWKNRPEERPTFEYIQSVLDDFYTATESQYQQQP

[5] = target: LCK (Homo sapiens (Human), UniProt P06239); experiment: as above; details: read-out: % Inhibition @ 1000 nM
Sequence of LCK (P06239 whole entry): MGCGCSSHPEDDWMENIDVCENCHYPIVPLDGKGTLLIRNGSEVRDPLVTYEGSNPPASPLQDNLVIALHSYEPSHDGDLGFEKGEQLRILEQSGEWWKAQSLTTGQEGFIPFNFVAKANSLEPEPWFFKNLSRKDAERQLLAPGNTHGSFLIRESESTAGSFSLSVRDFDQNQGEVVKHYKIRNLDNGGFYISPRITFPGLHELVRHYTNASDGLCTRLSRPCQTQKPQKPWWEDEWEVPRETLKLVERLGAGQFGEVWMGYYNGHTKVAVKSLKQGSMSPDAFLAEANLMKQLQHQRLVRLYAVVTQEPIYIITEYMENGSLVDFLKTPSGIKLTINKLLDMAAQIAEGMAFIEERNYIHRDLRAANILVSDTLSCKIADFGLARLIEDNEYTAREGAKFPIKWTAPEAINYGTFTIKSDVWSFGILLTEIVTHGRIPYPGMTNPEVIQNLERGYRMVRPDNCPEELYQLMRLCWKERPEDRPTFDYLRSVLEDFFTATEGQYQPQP

[6] = target: LYN (Homo sapiens (Human), UniProt P07948); experiment: as above; details: read-out: % Inhibition @ 1000 nM
Sequence of LYN (P07948 whole entry): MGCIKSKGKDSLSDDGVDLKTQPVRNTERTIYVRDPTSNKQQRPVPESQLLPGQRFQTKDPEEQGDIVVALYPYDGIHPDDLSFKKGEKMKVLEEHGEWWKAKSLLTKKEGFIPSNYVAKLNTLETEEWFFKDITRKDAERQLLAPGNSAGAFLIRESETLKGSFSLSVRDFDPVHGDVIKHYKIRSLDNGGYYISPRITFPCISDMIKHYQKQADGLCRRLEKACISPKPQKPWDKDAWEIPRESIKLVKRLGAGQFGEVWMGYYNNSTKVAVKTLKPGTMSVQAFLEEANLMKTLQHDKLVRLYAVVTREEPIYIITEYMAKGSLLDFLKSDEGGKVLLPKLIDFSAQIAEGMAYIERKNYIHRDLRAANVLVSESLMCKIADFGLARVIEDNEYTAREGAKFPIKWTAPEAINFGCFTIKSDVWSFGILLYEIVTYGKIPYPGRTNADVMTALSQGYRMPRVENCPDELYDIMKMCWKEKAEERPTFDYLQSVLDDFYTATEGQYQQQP

[7] = target: YES (Homo sapiens (Human), UniProt P07947); experiment: as above; details: read-out: % Inhibition @ 1000 nM
Sequence of YES (P07947 whole entry): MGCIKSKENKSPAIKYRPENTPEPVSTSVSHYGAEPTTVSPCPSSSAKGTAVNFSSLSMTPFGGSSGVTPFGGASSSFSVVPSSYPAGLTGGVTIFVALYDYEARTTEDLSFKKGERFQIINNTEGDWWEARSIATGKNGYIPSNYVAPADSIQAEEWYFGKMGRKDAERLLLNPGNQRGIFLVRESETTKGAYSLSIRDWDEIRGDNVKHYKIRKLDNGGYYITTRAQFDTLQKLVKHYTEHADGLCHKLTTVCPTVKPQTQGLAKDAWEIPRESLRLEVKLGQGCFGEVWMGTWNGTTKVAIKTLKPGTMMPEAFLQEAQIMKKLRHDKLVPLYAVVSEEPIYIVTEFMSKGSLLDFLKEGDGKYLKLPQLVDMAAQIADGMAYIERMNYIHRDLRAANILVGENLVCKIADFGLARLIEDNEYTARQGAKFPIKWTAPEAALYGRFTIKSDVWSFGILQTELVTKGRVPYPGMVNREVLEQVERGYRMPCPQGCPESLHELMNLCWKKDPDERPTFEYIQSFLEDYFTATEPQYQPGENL

[8] = target: T1, BTK (Homo sapiens (Human), UniProt Q06187); experiment: ADP-Glo Kinase biochemical assay, IC50 determination of BTK inhibitors; details: head-to-head assays
T1 sequence (Q06187 whole entry): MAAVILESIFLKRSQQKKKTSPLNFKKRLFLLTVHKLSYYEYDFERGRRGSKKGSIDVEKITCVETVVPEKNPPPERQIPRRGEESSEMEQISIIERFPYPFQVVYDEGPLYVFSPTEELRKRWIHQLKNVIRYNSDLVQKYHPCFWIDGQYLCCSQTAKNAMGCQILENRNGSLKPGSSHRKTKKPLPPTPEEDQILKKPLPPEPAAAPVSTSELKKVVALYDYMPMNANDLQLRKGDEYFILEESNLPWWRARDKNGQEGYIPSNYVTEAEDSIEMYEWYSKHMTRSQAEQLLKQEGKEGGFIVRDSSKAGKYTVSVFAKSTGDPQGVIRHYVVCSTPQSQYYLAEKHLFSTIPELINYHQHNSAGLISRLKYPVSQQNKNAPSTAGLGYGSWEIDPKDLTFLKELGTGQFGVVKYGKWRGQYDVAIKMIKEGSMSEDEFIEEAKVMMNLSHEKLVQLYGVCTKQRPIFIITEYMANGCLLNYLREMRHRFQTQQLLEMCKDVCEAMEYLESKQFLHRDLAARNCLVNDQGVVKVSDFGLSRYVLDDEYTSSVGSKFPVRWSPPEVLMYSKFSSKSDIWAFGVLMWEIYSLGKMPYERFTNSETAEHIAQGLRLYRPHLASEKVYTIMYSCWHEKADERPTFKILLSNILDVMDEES
Protocol: Biological Properties: IC50 Determination of BTK Inhibitors in ADP-Glo Kinase Biochemical Assay
• Enzyme concentration: 8 ng/5 ul. • ATP concentration: 50 uM • Substrate (peptide) concentration: 0.2 mg/ml. • Reaction buffer composition: 40 mM Tris-HCl pH7.5, 10 mM MgCl2, 2 mM MnCl2, 0.1 mg/mL BSA, 0.05 mM DTT. • Test compound concentration: DMSO≤0.5%. Methods: Compound Dosage Gradient Solution Preparation: […]
1× and 2× assay buffer were made at first. BTK kinase was diluted with 1× assay buffer but substrate was diluted with 2× assay buffer. 1 ul of diluted compound was transferred into 384-well assay plate, and then 2.0 ul of enzyme solution was added, and spun at 2000 rpm for 1 min. This mixture was incubated at 24° C. for 30 mins. 2 ul of peptide substrate/ATP mixture was added into the assay plate to start the reaction. The mixture was mixed thoroughly and then the 384-well plate was spun and incubated at 24° C. for 60 mins. 5.0 ul of ADP-Glo Reagent was added to stop the kinase activity and deplete the ATP unconsumed, and the plate was mixed thoroughly and incubated at 24° C. for 40 min. Then, 10.0 ul of Kinase Detection reagent was added, and the plate was centrifuged and then kept at 24° C. for 30 min. The luminescence signal was read on Envision. […]
All data was analyzed with IDBS XLfit5 software (ID Business Solutions Ltd., UK).

[9] = target: T1, BTK; experiment: kinase binding screen (affinity beads, qPCR readout) at 1000 nM
[10] = target: SRC (Homo sapiens (Human), UniProt P12931); experiment: as above
Sequence of SRC (P12931 whole entry, looked up): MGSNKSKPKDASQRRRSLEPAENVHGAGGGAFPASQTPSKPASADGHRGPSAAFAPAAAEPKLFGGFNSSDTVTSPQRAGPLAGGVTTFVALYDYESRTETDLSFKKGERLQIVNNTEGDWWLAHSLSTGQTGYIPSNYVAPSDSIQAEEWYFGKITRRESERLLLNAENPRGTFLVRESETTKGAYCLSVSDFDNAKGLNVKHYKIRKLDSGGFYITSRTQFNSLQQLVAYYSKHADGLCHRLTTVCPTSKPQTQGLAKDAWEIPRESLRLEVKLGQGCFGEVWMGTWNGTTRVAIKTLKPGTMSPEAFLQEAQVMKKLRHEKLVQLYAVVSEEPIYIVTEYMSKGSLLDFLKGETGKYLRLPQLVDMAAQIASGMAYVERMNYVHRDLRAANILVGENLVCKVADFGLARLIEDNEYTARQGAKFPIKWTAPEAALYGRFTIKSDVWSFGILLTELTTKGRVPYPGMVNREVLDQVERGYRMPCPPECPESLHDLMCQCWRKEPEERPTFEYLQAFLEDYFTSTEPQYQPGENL

[11] = target: EGFR (Homo sapiens (Human), UniProt P00533); experiment: as above; details: read-out: % Inhibition @ 1000 nM

Sequence of BLK (P51451 whole entry): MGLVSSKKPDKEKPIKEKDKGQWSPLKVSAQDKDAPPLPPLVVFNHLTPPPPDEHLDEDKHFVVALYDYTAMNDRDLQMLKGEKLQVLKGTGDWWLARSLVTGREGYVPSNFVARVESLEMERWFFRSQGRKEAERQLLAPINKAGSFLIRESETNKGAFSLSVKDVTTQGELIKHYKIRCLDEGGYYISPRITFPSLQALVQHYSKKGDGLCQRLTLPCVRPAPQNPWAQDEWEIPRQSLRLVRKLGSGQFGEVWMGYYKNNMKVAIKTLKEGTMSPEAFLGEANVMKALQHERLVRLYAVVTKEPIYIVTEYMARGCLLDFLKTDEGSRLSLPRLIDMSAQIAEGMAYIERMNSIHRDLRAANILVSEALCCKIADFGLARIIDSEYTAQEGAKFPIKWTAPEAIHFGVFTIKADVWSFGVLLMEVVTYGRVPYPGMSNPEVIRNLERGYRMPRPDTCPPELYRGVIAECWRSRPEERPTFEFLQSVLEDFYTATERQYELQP

`C=CC(=O)N1CCC(c2ccc(C(N)=O)c(-c3ccc(Oc4ccccc4)cc3)n2)CC1` [Example 3, 6-(1-acryloylpiperidin-4-yl)-2-(4-phenoxyphenyl)nicotinamide] gave an inhibition at 1 µM [1] of 51%, an inhibition at 1 µM [2] of 0% and an inhibition at 1 µM [3] of 0%. For the same molecule, the inhibition at 1 µM [4] was 0%, the inhibition at 1 µM [5] was 11% and the inhibition at 1 µM [6] was 3%. For the same molecule, the inhibition at 1 µM [7] was 8%.
For `C=CC(=O)N1CCN(c2ccc(C(N)=O)c(-c3ccc(Oc4ccccc4)cc3)n2)CC1` [Example 5, 6-(4-acryloylpiperazin-1-yl)-2-(4-phenoxyphenyl)nicotinamide], the IC50 ([8]; unit not printed in Table 2, read-out: BTK in vitro potency) was 4.7 nM, the “improvement in potency over Analogs 1 and 2” value ([8]; in vitro BTK potency) was roughly 100 × and the inhibition at 1 µM [9] was 99.7%. The “Fold Difference” value ([10]; BTK vs SRC) was greater than 100x, the inhibition at 1 µM ([10]; SRC, 1000 nM) was 33% and the inhibition at 1 µM [1] was 46%. The inhibition at 1 µM [11] was 23%, the inhibition at 1 µM [2] was 0% and the inhibition at 1 µM [3] was 5%. It also gave an inhibition at 1 µM [4] of 21%, an inhibition at 1 µM [5] of 0% and an inhibition at 1 µM [6] of 7%. The inhibition at 1 µM [7] was 6%.
